Where a SMILES comes first, the peptide text is derived from it. [ ]: non-standard residue; d: D form.
How the values were obtained:
lean control mice [1] = assay: Acute food intake in lean control mice; type: in vivo; settings: 250 nmol/kg i.p.
Procedure: Acute animal studies were conducted in male NIH Swiss mice (12-14 weeks old, Harlan Ltd, UK) maintained on a standard rodent maintenance diet (10% fat, 30% protein and 60% carbohydrate, Trouw Nutrition, Cheshire, UK). […] All animals were housed individually in an air-conditioned room at 22±2° C. with a 12 h light:12 h dark cycle and had free access to food and water. All animal experiments were carried out in accordance with the UK Animals (Scientific Procedures) Act 1986.

BRIN-BD11 cells = assay: In vitro insulin secretion from BRIN-BD11 cells; type: cell-based; settings: 20 min; for Insulin secretion from BRIN-BD11 cells: 10^−6 mol/l peptide, vs 5.6 and 16.7 mmol/l glucose control
Procedure: BRIN-BD11 cells were used to assess the insulin releasing activity of polypeptides as described by […] et al., 1996 (Diabetes. 1996 August; 45(8):1132-40). Cells were cultured in RPMI-1640 growth media supplemented with 10% (v/v) foetal bovine serum (FBS) and 1% (v/v) antibiotics (penicillin (100 U/ml), streptomycin ([…])), in 75 cm2 sterile tissue culture flasks (Greiner bio-one, UK) maintained at 37° C. and 5% CO2 in a LEEC incubator (Laboratory technical engineering, Nottingham, UK). BRIN-BD11 cells were then seeded at a density of 150,000 cells/well in 24-well plates (Nunc, Roskilde, Denmark) and allowed to attach overnight at 37° C.

lean control mice [2] = assay: Acute and persistent glucose lowering and insulin releasing effects in lean control mice; type: in vivo
Procedure: All animal experiments were carried out in accordance with the UK Animals (Scientific Procedures) Act 1986. For food intake studies, fasted (18 h) mice were given intraperitoneal (i.p) injections of polypeptides at a dose of 25, 100 or 250 nmol/kg bw. Mice were then allowed free access to normal chow for 180 mins and cumulative food intake measured. […] Blood samples were collected from the cut tip on the tail vein of conscious mice into chilled fluoride/heparin glucose micro-centrifuge tubes (Sarstedt, Numbrecht, Germany) at the time points indicated in the Drawings. Blood glucose was measured directly using a hand-held Ascencia Contour blood glucose meter (Bayer Healthcare, Newbury, Berkshire, UK).

DPP-4 = target: T1, DPP-4 (Sus scrofa, UniProt P22411); assay: DPP-4 degradation / in vitro DPP-4 half-life; type: in vitro ADME, porcine; settings: pig; 37° C., 50 mmol/L TEA-HCl pH 7.8, 5 mU purified porcine DPP-4, 0-12 h
T1 construct: purchased Sigma-Aldrich, Dorset, UK
Procedure: (§1) For calculation of experimental molecular masses, peptide samples (1 μg) were mixed with α-cyano-4-hydroxycinnamic acid (1 μg) and applied to a Voyager-DE BioSpectrometry Workstation and mass-to-charge (m/z) ratio verses peak intensity recorded by MALDI-TOF mass spectrometry. […] Degradation profiles were obtained using rp-HPLC analysis and HPLC peak area data used to calculate percentage intact peptide remaining at each time point.
(§2) Briefly, polypeptides (20 μg) were incubated with 5 μl of purified DPP-4 (5 mU, Sigma-Aldrich, Dorset, UK) in 50 mM TEA-HCl (pH 7.8; final volume 450 μl) at 37° C. for 0, 1, 4 and 12 hours. Enzymatic reactions were terminated by the addition of 50 μl TFA/H2O (10% v/v, Sigma-Aldrich, Dorset, UK). Reaction products were then separated by HPLC and analysed using MALDI-TOF.

purified porcine DPP-4 = target: T2, purified porcine DPP-4 (Sus scrofa, UniProt P22411); assay: DPP-4 degradation / in vitro DPP-4 half-life; type: in vitro ADME; settings: incubated in the presence of DPP-4 for up to 12 hs
T2 construct: purchased Sigma-Aldrich, Dorset, UK
Procedure: as §1, §2

T1 sequence (P22411 whole entry): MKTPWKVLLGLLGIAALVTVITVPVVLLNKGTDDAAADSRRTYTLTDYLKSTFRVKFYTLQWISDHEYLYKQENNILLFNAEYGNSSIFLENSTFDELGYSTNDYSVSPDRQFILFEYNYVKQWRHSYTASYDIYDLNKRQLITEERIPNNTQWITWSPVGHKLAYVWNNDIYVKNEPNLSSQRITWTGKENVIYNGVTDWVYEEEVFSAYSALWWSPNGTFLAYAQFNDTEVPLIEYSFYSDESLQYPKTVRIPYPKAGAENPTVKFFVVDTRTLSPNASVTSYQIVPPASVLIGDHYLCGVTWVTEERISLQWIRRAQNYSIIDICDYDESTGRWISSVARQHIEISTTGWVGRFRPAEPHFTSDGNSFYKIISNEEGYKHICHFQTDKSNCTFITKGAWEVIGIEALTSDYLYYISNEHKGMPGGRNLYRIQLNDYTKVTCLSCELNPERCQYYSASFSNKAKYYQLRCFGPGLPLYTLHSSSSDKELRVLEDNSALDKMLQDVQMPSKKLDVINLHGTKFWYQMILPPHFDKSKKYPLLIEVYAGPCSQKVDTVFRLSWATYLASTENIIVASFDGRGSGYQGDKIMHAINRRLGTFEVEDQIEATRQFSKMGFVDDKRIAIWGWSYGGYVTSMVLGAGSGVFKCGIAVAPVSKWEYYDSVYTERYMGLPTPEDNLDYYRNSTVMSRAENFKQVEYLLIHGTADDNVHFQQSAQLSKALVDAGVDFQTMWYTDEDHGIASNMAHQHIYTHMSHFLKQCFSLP
T2 sequence (P22411 whole entry): as above

For “HIS-PRO-GLN-GLN-PRO-TRP-ILE-LEU (HPQQPWIL; listed as Homo sapiens) [xenin-8-Gln]”, the “Cumulative food intake at 120 min post-injection” value (lean control mice [1]) was “significant (P<0.05) reductions in cumulative food intake”, the “Insulin secretion from BRIN-BD11 cells” value (BRIN-BD11 cells) was “significantly (P<0.05 to P<0.001) stimulated insulin secretion” and the “Glucose lowering or insulin releasing effects, peptide 4 h prior to glucose load” value (lean control mice [2]; 25 nmol/kg 4 h before glucose 18 mmol/kg) was “devoid of any beneficial glucose lowering or insulin releasing effects”. For the same compound, the “Blood glucose at 30 min post injection” value (lean control mice [2]; 25 nmol/kg with glucose 18 mmol/kg i.p., non-fasted mice, vs glucose alone) was “significantly (P<0.05) lowered blood glucose values” and the “Overall 0-105 min AUC blood glucose” value (lean control mice [2]; 25 nmol/kg with glucose 18 mmol/kg i.p., vs glucose alone) was “significantly (P<0.05) decreased”.
“HIS-PRO-LYS-ARG-PRO-TRP-ILE-LEU (HPKRPWIL; listed as Homo sapiens) [xenin-8, reference compound]” was tested, and the “Insulin secretion from BRIN-BD11 cells” value (BRIN-BD11 cells) was “significantly (P<0.05 to P<0.001) stimulated insulin secretion”.
Compound CC[C@H](C)[C@H](NC(=O)[C@H](CO)NC(=O)[C@H](Cc1ccc(O)cc1)NC(=O)[C@H](CC(=O)O)NC(=O)[C@H](CO)NC(=O)[C@@H](NC(=O)[C@H](Cc1ccccc1)NC(=O)[C@@H](NC(=O)CNC(=O)[C@H](CCC(=O)O)NC(=O)[C@H](C)NC(=O)[C@@H](N)Cc1ccc(O)cc1)[C@@H](C)O)[C@@H](C)CC)C(=O)N[C@@H](C)C(=O)N[C@@H](CCSC)C(=O)N[C@@H](CC(=O)O)C(=O)N[C@@H](CCCCN)C(=O)N[C@H](C(=O)N[C@@H](Cc1c[nH]cn1)C(=O)N[C@@H](CCC(N)=O)C(=O)N[C@@H](CCC(N)=O)C(=O)N[C@@H](CC(=O)O)C(=O)N[C@@H](Cc1ccccc1)C(=O)N[C@H](C(=O)N[C@@H](CC(N)=O)C(=O)N[C@@H](Cc1c[nH]c2ccccc12)C(=O)N[C@@H](CC(C)C)C(=O)N[C@@H](CC(C)C)C(=O)N[C@@H](C)C(=O)N[C@@H](CCC(N)=O)C(=O)N[C@@H](CCCCN)C(=O)NCC(=O)N[C@@H](CCCCN)C(=O)N[C@@H](CCCCN)C(=O)N[C@@H](CC(N)=O)C(=O)N[C@@H](CC(=O)O)C(=O)N[C@@H](Cc1c[nH]c2ccccc12)C(=O)N[C@@H](CCCCN)C(=O)N[C@@H](Cc1c[nH]cn1)C(=O)N[C@@H](CC(N)=O)C(=O)N[C@H](C(=O)N[C@H](C(=O)N[C@@H](CCC(N)=O)C(=O)O)[C@@H](C)O)[C@@H](C)CC)C(C)C)[C@@H](C)CC [Native GIP, reference compound] has a half-life at 44.4 µg/mL (DPP-4) of under 1 h.
With “HIS-PRO-GLN-GLN-PRO-TRP-ILE-LEU-GLY-ALA-ALA-GLU-GLU-GLU-GLU-GLU-GLU (HPQQPWILGAAEEEEEE; listed as Homo sapiens) [GIP(L-Glu)]” the “Insulin secretory effect in BRIN BD11 beta-cells of C-terminally modified peptide” value (BRIN-BD11 cells; 10^−12-10^−6 M, vs 5.6 mM glucose alone) was “does not hinder biological activity at the cellular level”.
With CC[C@H](C)[C@H](NC(=O)[C@H](CO)NC(=O)[C@H](Cc1ccc(O)cc1)NC(=O)[C@H](CC(=O)O)NC(=O)[C@H](CO)NC(=O)[C@@H](NC(=O)[C@H](Cc1ccccc1)NC(=O)[C@@H](NC(=O)CNC(=O)[C@H](CCC(=O)O)NC(=O)[C@@H](C)NC(=O)[C@@H](N)Cc1ccc(O)cc1)[C@@H](C)O)[C@@H](C)CC)C(=O)N[C@@H](C)C(=O)N[C@@H](CCSC)C(=O)N[C@@H](Cc1c[nH]cn1)C(=O)N1CCC[C@H]1C(=O)N[C@@H](CCC(N)=O)C(=O)N[C@@H](CCC(N)=O)C(=O)N1CCC[C@H]1C(=O)N[C@@H](Cc1c[nH]c2ccccc12)C(=O)N[C@H](C(=O)N[C@@H](CC(C)C)C(=O)O)[C@@H](C)CC [(DAla2)GIP/xenin-8-Gln, TYR-(d)ALA-GLU-GLY-THR-PHE-ILE-SER-ASP-TYR-SER-ILE-ALA-MET-HIS-PRO-GLN-GLN-PRO-TRP-ILE-LEU] (H-Y[dA]EGTFISDYSIAMHPQQPWIL-OH; N-terminus and C-terminus assumed) the half-life at 44.4 µg/mL (DPP-4) was over 12 h and the “Intactness on incubation with DPP-4” value (purified porcine DPP-4) was “remained fully intact”.
In the case of “MET-LEU-THR-LYS-PHE-GLU-THR-LYS-SER-ALA-ARG-VAL-LYS-GLY-LEU-SER-PHE-HIS-PRO-LYS-ARG-PRO-TRP-ILE-LEU (MLTKFETKSARVKGLSFHPKRPWIL; listed as Homo sapiens) [xenin, reference compound]”, the “Appetite suppressive effect at 90 min post-injection” value (lean control mice [1]; vs control) was “significantly (P<0.05) superior to control mice” and the “Insulin secretion from BRIN-BD11 cells” value (BRIN-BD11 cells) was “significantly (P<0.05 to P<0.001) stimulated insulin secretion”.
